Experimental data as given in the supplement of paper PMC10307832.

Assays:
Test in all cases: relative viability (nuclei count vs DMSO), 5 days (fraction); higher = more cells survive
[1] = compound: CC(C)N(CCCNC(=O)Nc1ccc(C(C)(C)C)cc1)C[C@H]1O[C@@H](n2ccc3c(N)ncnc32)[C@H](O)[C@@H]1O + Cc1nc(Nc2ncc(C(=O)Nc3c(C)cccc3Cl)s2)cc(N2CCN(CCO)CC2)n1 [Dasatinib] (partner 0.075 µM)
How it was run: (§1)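 Lung cancer cell lines in 1536-well plates were dosed by pin tool the day after seeding, either with one drug alone or with a fixed anchor-drug dose plus five library-drug doses (not always all listed) in √10 steps. After 5 days, cells were fixed and their nuclei stained in one step (final 0.05% Triton X-100, 1% formaldehyde, 1 ug/ml Hoechst), then counted on 4× images. Relative viability is the nuclei count in treated wells divided by that in vehicle wells. Values are medians of duplicate plates.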

[2] = compound: CC(C)=CC[C@@H](O)C1=CC(=O)c2c(O)ccc(O)c2C1=O [Shikonin] + O=C(CCCCCCC(=O)Nc1ccccc1)NO [Vorinostat] (partner 1 µM)
How it was run: as §1

[3] = compound: CC(C)N(CCCNC(=O)Nc1ccc(C(C)(C)C)cc1)C[C@H]1O[C@@H](n2ccc3c(N)ncnc32)[C@H](O)[C@@H]1O + O=C(CCCCCCC(=O)Nc1ccccc1)NO [Vorinostat] (partner 1 µM)
How it was run: as §1

[4] = compound: CC(C)N(CCCNC(=O)Nc1ccc(C(C)(C)C)cc1)C[C@H]1O[C@@H](n2ccc3c(N)ncnc32)[C@H](O)[C@@H]1O + Nc1ncn([C@H]2C[C@H](O)[C@@H](CO)O2)c(=O)n1 [Decitabine] (partner 2 µM)
How it was run: as §1

Cell Line	relative viability ([1]; first compound 0.08 µM)	relative viability ([1]; first compound 0.253 µM)	relative viability ([1]; first compound 0.8 µM)	relative viability ([1]; first compound 2.53 µM)	relative viability ([1]; first compound 8 µM)	relative viability ([2]; first compound 0.01 µM)	relative viability ([2]; first compound 0.1 µM)	relative viability ([2]; first compound 0.3162 µM)	relative viability ([2]; first compound 1 µM)	relative viability ([3]; first compound 0.08 µM)	relative viability ([3]; first compound 0.253 µM)	relative viability ([3]; first compound 0.8 µM)	relative viability ([3]; first compound 2.53 µM)	relative viability ([3]; first compound 8 µM)	relative viability ([4]; first compound 0.08 µM)	relative viability ([4]; first compound 0.253 µM)	relative viability ([4]; first compound 0.8 µM)	relative viability ([4]; first compound 2.53 µM)	relative viability ([4]; first compound 8 µM)
NCI-H1437	0.359	0.37	0.443	0.337	0.327	0.886	0.841	0.856	0.736	0.8	0.799	0.759	0.791	0.759	0.563	0.569	0.619	0.553	0.592
NCI-H596	0.603	–	0.528	0.561	0.619	0.45	0.616	0.612	0.774	0.601	0.427	0.39	0.674	0.714	1.03	0.975	1.03	1.19	0.988
NCI-H1666	0.874	0.796	0.799	0.813	0.705	1.07	0.96	0.966	1.12	1.1	1	1.02	1.01	0.934	0.722	0.697	0.808	0.832	0.673
SW 900	0.74	0.542	–	0.605	0.54	0.357	0.458	0.377	0.576	0.639	0.38	–	0.562	0.548	0.387	0.43	–	0.42	0.404
NCI-H1651	0.317	0.373	0.291	0.386	0.517	0.553	0.617	0.57	0.636	0.543	0.542	0.504	0.577	0.576	0.611	0.534	0.589	0.611	0.539
NCI-H1755	0.373	0.44	0.418	0.428	0.429	0.637	0.807	0.888	0.665	0.769	0.74	0.666	0.756	0.723	0.787	0.701	0.666	0.668	0.714
NCI-H838	0.268	0.262	0.279	0.263	0.31	0.704	0.753	0.775	0.582	0.683	0.744	0.784	0.755	0.672	0.454	0.431	0.491	0.483	0.511
HARA	0.27	0.282	0.278	0.22	0.244	0.546	0.51	0.468	0.605	0.559	0.511	0.529	0.496	0.475	0.556	0.545	0.62	0.457	0.495
NCI-H650	0.416	0.425	0.468	0.434	0.438	0.425	0.418	0.465	0.439	0.414	0.444	0.459	0.426	0.401	0.338	0.372	0.335	0.315	0.324
NCI-H2347	0.305	0.305	0.326	0.296	0.293	0.567	0.529	0.6	0.577	0.54	0.537	0.458	0.608	0.546	0.529	0.688	0.616	0.664	0.432
LCLC-97TM1	0.897	0.783	0.933	0.822	0.82	0.872	0.764	1.08	0.928	0.893	0.656	0.801	0.661	0.831	0.215	0.305	0.243	0.242	0.194
EPLC-272H	0.354	0.394	0.508	0.373	0.439	0.378	0.353	0.536	0.377	0.404	0.439	0.664	0.4	0.708	0.366	0.381	0.368	0.413	0.39
NCI-H2342	0.336	0.29	0.289	0.321	0.277	0.872	0.722	0.78	0.764	0.708	0.744	0.669	0.778	0.775	0.667	0.649	0.655	0.815	0.713
NCI-H1915	0.311	0.34	0.311	0.323	0.314	0.511	0.612	0.576	0.479	0.495	0.582	0.483	0.475	0.485	0.274	0.289	0.269	0.25	0.267
NCI-H3122	0.696	0.814	0.559	0.786	0.739	1.07	0.986	1.29	0.944	0.957	1.2	0.894	0.991	0.921	0.445	0.467	0.462	0.409	0.481
NCI-H441	0.718	0.535	–	0.544	0.535	0.875	0.832	0.783	0.695	0.811	0.641	–	0.784	0.654	0.278	0.251	–	0.218	0.252
NCI-H2170	0.429	0.478	0.55	0.591	0.562	0.856	0.89	0.999	0.816	0.811	0.681	0.807	0.83	0.688	0.477	0.418	0.42	0.438	0.471
